Assay results from PMC7926928, “Preliminary Investigation of the Antioxidant, Anti-Diabetic, and Anti-Inflammatory Activity of Enteromorpha intestinalis Extracts” (Molecules, 2021).

Tested on: T1, trypsin
T1 construct: gene PRSS1
Test: casein digestion, absorbance at […] nm
Assay type: biochemical
Settings: casein 0.8%, 20 mM Tris-HCl pH 7.4, 37 °C, 20 min

CC(=O)Oc1ccccc1C(=O)O [acetylsalicylic acid]
Acetylsalicylic Acid: 5.11 ± 0.97 µg/mL
